Assay: mn = molality of the nth substance listed, in mol/kg
Conditions: 101 kPa, Liquid; for viscosity: Capillary tube (Ostwald / Ubbelohde) method

COC(=O)[C@H](c1ccccc1Cl)N1CCc2sccc2C1.O=S(=O)(O)O [(S)-(+)-Clopidogrel hydrogen sulfate] + CO
Conditions	mass density [kg/m3]	viscosity [mPa·s]
278.15 K, m1 = 0.001	803.1	0.7441
278.15 K, m1 = 0.003	803.5	0.747
278.15 K, m1 = 0.005	804	0.7487
278.15 K, m1 = 0.007	804.4	0.7505
278.15 K, m1 = 0.009	804.8	0.7525
278.15 K, m1 = 0.011	805.2	0.7529
278.15 K, m1 = 0.013	805.9	0.7577
278.15 K, m1 = 0.015	806.4	0.7582
283.15 K, m1 = 0.001	799.2	0.6924
283.15 K, m1 = 0.003	799.5	0.6943
283.15 K, m1 = 0.005	800.1	0.6961
283.15 K, m1 = 0.007	800.4	0.698
283.15 K, m1 = 0.009	801.1	0.6998
283.15 K, m1 = 0.011	801.5	0.7006
283.15 K, m1 = 0.013	802	0.7039
283.15 K, m1 = 0.015	802.6	0.705
288.15 K, m1 = 0.001	795.4	0.6416
288.15 K, m1 = 0.003	795.8	0.6446
288.15 K, m1 = 0.005	796.2	0.6475
288.15 K, m1 = 0.007	796.4	0.6487
288.15 K, m1 = 0.009	797.1	0.6494
288.15 K, m1 = 0.011	797.5	0.6502
288.15 K, m1 = 0.013	798.2	0.6527
288.15 K, m1 = 0.015	799	0.6538
293.15 K, m1 = 0.001	792.3	0.6006
293.15 K, m1 = 0.003	792.5	0.6022
293.15 K, m1 = 0.005	792.9	0.6042
293.15 K, m1 = 0.007	793.3	0.6049
293.15 K, m1 = 0.009	793.6	0.606
293.15 K, m1 = 0.011	794	0.6077
293.15 K, m1 = 0.013	794.5	0.6096
293.15 K, m1 = 0.015	795.3	0.6111
298.15 K, m1 = 0.001	788.1	0.5596
298.15 K, m1 = 0.003	788.2	0.562
298.15 K, m1 = 0.005	788.4	0.5631
298.15 K, m1 = 0.007	788.7	0.5638
298.15 K, m1 = 0.009	789	0.5652
298.15 K, m1 = 0.011	789.3	0.5661
298.15 K, m1 = 0.013	790	0.5684
298.15 K, m1 = 0.015	790.8	0.5694
303.15 K, m1 = 0.001	784	0.5212
303.15 K, m1 = 0.003	784.1	0.5236
303.15 K, m1 = 0.005	784.3	0.5254
303.15 K, m1 = 0.007	784.5	0.5262
303.15 K, m1 = 0.009	785	0.5269
303.15 K, m1 = 0.011	785.3	0.5276
303.15 K, m1 = 0.013	785.8	0.5304
303.15 K, m1 = 0.015	786.6	0.5315
308.15 K, m1 = 0.001	779.7	0.487
308.15 K, m1 = 0.003	779.8	0.4898
308.15 K, m1 = 0.005	780	0.4901
308.15 K, m1 = 0.007	780.3	0.4906
308.15 K, m1 = 0.009	780.7	0.4919
308.15 K, m1 = 0.011	781.1	0.4936
308.15 K, m1 = 0.013	781.5	0.4943
308.15 K, m1 = 0.015	782.3	0.4967
313.15 K, m1 = 0.001	775.3	0.4567
313.15 K, m1 = 0.003	775.5	0.4589
313.15 K, m1 = 0.005	775.7	0.4595
313.15 K, m1 = 0.007	775.9	0.4601
313.15 K, m1 = 0.009	776	0.4604
313.15 K, m1 = 0.011	776.4	0.462
313.15 K, m1 = 0.013	777	0.4631
313.15 K, m1 = 0.015	777.8	0.4647
